Experimental data reported in patent US11879145B2, “Reagents and methods for replication, transcription, and translation in semi-synthetic organisms” (The Scripps Research Institute, priority 2019, dated 2024).
“And” between values parts separate entries of the source, which are not always exact repeats. Equal entries are not always repeated. “Also recorded” adds a separate entry of the source.

Columns and labels:
sfGFP^151(AXC) gene = assay: UBP retention in the sfGFP gene by streptavidin gel shift assay (in vivo screen of dXTPs); assay type: cell-based, E. coli; conditions: dTPT3TP 10 μM, strain YZ3
Description: (§1) These plasmids were used to transform E. coli expressing the nucleoside triphosphate transporter PtNTT2 (strain YZ38) and harboring a plasmid encoding Mb PylRS. After transformation, colonies were selected and grown to an OD600˜1.0 in liquid media supplemented with dTPT3TP (10 μM) and one of seven different dXTPs (FIG. 2) added at varying concentrations (150 μM, 10 μM, or 5 μM). Cells were then diluted into fresh expression media containing the same unnatural deoxyribonucleotides as well as NaMTP (250 μM), TPT3TP (30 μM), and AzK (10 mM). After a brief incubation, T7 RNAP and tRNAPyl(GYT) expression was induced by the addition of isopropyl-β-d-thiogalactoside (IPTG, 1 mM). After an additional 1 h of incubation, the expression of sfGFP^151(AXC) was initiated by the addition of anhydrotetracycline (aTc, 100 ng/mL).
(§2) Analysis of PCR products. After 2.5 h, plasmids were isolated and then the genes of interest were independently PCR amplified using d5SICSTP and a biotinylated analog of dNaMTP7. The resulting PCR product was analyzed via a gel mobility shift assay using streptavidin to quantify the UBP retained as a percent shift of the total amplified product (hereafter referred to as the streptavidin gel shift assay) (FIG. 3A and FIG. 3B).
In vivo Translation Screen of dXTPs. An overnight culture of the SSO strain YZ3 carrying the pGEX-MbPylRS TetR plasmid was grown in 2×YT supplemented with 50 mM potassium phosphate, […] chloramphenicol and 100 μg/mL carbenicillin (herein referred to in this section as “media”), then diluted back to an OD600 of 0.03 in the same media and grown to an OD600 of 0.4 to 0.6. The culture was then chilled with shaking over ice-water for 15 minutes then pelleted by centrifugation at 3,200×g for 10 min. Cells were then resuspended and washed with ice-cold ddH2O twice then resuspended in ice-cold ddH2O to an OD600 of 55-65. The electrocompetent cells (50 μL) and 1 ng of Golden Gate assembled plasmid with the UBP within the sfGFP and tRNAPyl genes (see Golden Gate Assembly of Plasmids) were transferred to a pre-chilled electroporation cuvette (0.2-cm-gap), then electroporated (Gene Pulser II; Bio-Rad) according to manufacturer's recommendations (voltage […], capacitor 2.5 μF, resistor 200Ω), and then immediately diluted with 950 μL of media. An aliquot (40 μL) of the transformation was then diluted five-fold in media supplemented with dNaMTP (150 μM) and dTPT3TP (10 μM) for a final volume of 200 μL then allowed to recover for 1 h shaking at 37° C. […] The culture was monitored for cell growth (Envision 2103 Multilabel Plate Reader with a 590/20 nm filter) and then collected at an OD600˜1.0. […]

tRNA^Pyl(GYT) gene = assay: UBP retention in the tRNA gene by streptavidin gel shift assay (in vivo screen of dXTPs); assay type: cell-based, E. coli; conditions: dTPT3TP 10 μM, strain YZ3
Description: as §1, §2
In vivo Translation Screen of dXTPs. An overnight culture of the SSO strain YZ3 carrying the pGEX-MbPylRS TetR plasmid was grown in 2×YT supplemented with 50 mM potassium phosphate, […] chloramphenicol and 100 μg/mL carbenicillin (herein referred to in this section as “media”), then diluted back to an OD600 of 0.03 in the same media and grown to an OD600 of 0.4 to 0.6. The culture was then chilled with shaking over ice-water for 15 minutes then pelleted by centrifugation at 3,200×g for 10 min. Cells were then resuspended and washed with ice-cold ddH2O twice then resuspended in ice-cold ddH2O to an OD600 of 55-65. […] The culture was monitored for cell growth (Envision 2103 Multilabel Plate Reader with a 590/20 nm filter) and then collected at an OD600˜1.0. […]

sfGFP^151(AXC) [1] = assay: Bulk culture sfGFP fluorescence normalized to cell growth (in vivo screen of dXTPs); assay type: cell-based, E. coli; conditions: for sfGFP fluorescence normalized to cell growth: AzK added
Description: as §1
Analysis of reporter protein production. To characterize the amount of protein produced, bulk culture fluorescence normalized to cell growth was measured 2.5 h after the induction of protein expression (FIG. 3C). […] Cells growth was not observed when provided with only 5 μM dNaMTP. While similar at high concentrations, at lower concentrations the use of each dXTP analog results in a greater AzK-dependent increase in fluorescence than does the use of dNaMTP.
Ten-fold dilutions of the glycerol stock were re-plated onto solid growth media supplemented with dNaMTP (150 μM), dTPT3TP (10 μM), and 2% w/v agar, then grown at 37° C. overnight. Single colonies were picked and grown in growth media (300 μL) supplemented with corresponding dXTP (various concentrations), and dTPT3TP (10 μM), then monitored for cell growth and collected at an OD600˜1.0. Once all samples were collected, samples were left on ice overnight. The samples were then re-diluted to OD600˜0.1, to a final volume of 300 μL and provided with the corresponding dXTP (various concentrations), and dTPT3TP (10 μM). […] From this point on, cells were monitored for growth and fluorescence. […]

sfGFP^151(AXC) [2] = assay: Fidelity of AzK incorporation into sfGFP, DBCO-TAMRA gel shift / western blot (in vivo screen of dXTPs); assay type: cell-based, E. coli
Description: Analysis of reporter protein fidelity. To directly assess the fidelity of unnatural protein production, cells were harvested 2.5 h after the induction of protein expression and the sfGFP produced was purified and subjected to a strain-promoted azide-alkyne cycloaddition reaction with dibenzocyclooctyne (DBCO) linked to a TAMRA dye by four PEG units. In addition to tagging the proteins containing the ncAA with a detectable fluorophore, conjugation produces a shift in electrophoretic migration, allowing quantification of protein containing AzK as a percentage of the total protein produced (i.e. fidelity of ncAA incorporation; FIG. 3D).
Ten-fold dilutions of the glycerol stock were re-plated onto solid growth media supplemented with dNaMTP (150 μM), dTPT3TP (10 μM), and 2% w/v agar, then grown at 37° C. overnight. Single colonies were picked and grown in growth media (300 μL) supplemented with corresponding dXTP (various concentrations), and dTPT3TP (10 μM), then monitored for cell growth and collected at an OD600˜1.0. Once all samples were collected, samples were left on ice overnight. The samples were then re-diluted to OD600˜0.1, to a final volume of 300 μL and provided with the corresponding dXTP (various concentrations), and dTPT3TP (10 μM). The remaining culture not used was pelleted and stored at −80° C. for subsequent plasmid isolation using the ZR Plasmid Prep Kit (Zymo Research) to determine UBP retention. When cultures reached an OD600˜0.4-0.6, they were provided with NaMTP (250 μM) and TPT3TP (30 μM), and AzK (10 mM) (or ddH2O for cultures grown in the absence of AzK). Samples were shielded from light after addition of AzK to prevent photodegradation. These samples were then grown at 37° C. for 20 min before adding 1 mM IPTG and grown at 37° C. for an additional 1 h to induce T7 RNAP and transcription of tRNAPyl and PylRS. From this point on, cells were monitored for growth and fluorescence. Expression of sfGFP was then induced with anhydrotetracycline (100 ng/mL).
Affinity Purification of sfGFP. Cell pellets collected from translation experiments were resuspended in BugBuster (100 μL 1×, EMD Millipore) and shaken at room temperature for 15 min. The cell lysate was then diluted with Buffer W (380 μL; 50 mM HEPES pH 8, 150 mM NaCl, 1 mM EDTA) and magnetic Strep-Tactin beads (20 μL, 5% (v/v) suspension of MagStrep ‘type3’ XT beads, IBA Lifesciences) equilibrated in Buffer W, were added. The mixture was gently inverted at 4° C. for 30 min. […] Purified proteins were quantified using the Qubit Protein Assay Kit (Thermo Fisher Scientific). […]

E. coli strain YZ3 = assay: Cell growth / viability in the in vivo screen of dXTPs; assay type: cell-based; conditions: dXTP 5 μM
Description: as §1, with “After an additional 1 h of incubation, the expression of sfGFP^151(AXC) was initiated by the addition of anhydrotetracycline (aTc, 100 ng/mL).” left out
Analysis of reporter protein production. To characterize the amount of protein produced, bulk culture fluorescence normalized to cell growth was measured 2.5 h after the induction of protein expression (FIG. 3C). […] While similar at high concentrations, at lower concentrations the use of each dXTP analog results in a greater AzK-dependent increase in fluorescence than does the use of dNaMTP.
Ten-fold dilutions of the glycerol stock were re-plated onto solid growth media supplemented with dNaMTP (150 μM), dTPT3TP (10 μM), and 2% w/v agar, then grown at 37° C. overnight. […] From this point on, cells were monitored for growth and fluorescence. […]

[3] = dXTP 5 μM (lowest concentration)

Row | Compound | UBP retention in the sfGFP^151(AXC) gene (sfGFP^151(AXC) gene; [3]) | UBP retention in the sfGFP^151(AXC) gene (sfGFP^151(AXC) gene; dXTP 10 μM) [%] | UBP retention in the tRNA^Pyl(GYT) gene (tRNA^Pyl(GYT) gene; [3]) [%] | UBP retention in the tRNA^Pyl(GYT) gene (tRNA^Pyl(GYT) gene; dXTP 10 μM) [%] | sfGFP fluorescence normalized to cell growth (sfGFP^151(AXC) [1]; dXTP 5 μM) | AzK-dependent increase in fluorescence (sfGFP^151(AXC) [1]; lower dXTP concentrations, compared with dNaMTP) | Fidelity of ncAA incorporation (protein shift) (sfGFP^151(AXC) [2]; dXTP 5 μM) | Fidelity of ncAA incorporation (protein shift) (sfGFP^151(AXC) [2]; dXTP 10 μM) | Quantity of pure unnatural protein produced (sfGFP^151(AXC) [2]; especially at lower concentrations) | UBP retention in the sfGFP^151(AXC) gene (sfGFP^151(AXC) gene; dXTP 150 μM) [%] | sfGFP fluorescence normalized to cell growth (sfGFP^151(AXC) [1]; dXTP 150 or 10 μM) | Cell growth / survival (E. coli strain YZ3)
1 | COc1cc(C)c(F)cc1[C@H]1C[C@H](O)[C@@H](COP(=O)(O)OP(=O)(O)OP(=O)(O)O)O1 [d5FMTP] | 94% and ~93% | 96 | 83 | 82 | remained the same | largest AzK-dependent increase in fluorescence | remained similar to that observed at 10 μM | remained high | greatest quantity of pure unnatural protein | – | – | –
2 | COc1cc2ccccc2cc1[C@H]1C[C@H](O)[C@@H](COP(=O)(O)OP(=O)(O)OP(=O)(O)O)O1 [dNaMTP] | – | 73 | – | 71 | – | – | – | dropped precipitously | – | 99 | significantly less fluorescence at 10 μM than at 150 μM | not observed; also recorded: did not survive
